From patent publication US8450361B2, “Substituted indole and azaindole oxoacetyl piperazinamide derivatives” (priority 2010, dated 2013)
pEC50: −log10 of the molar value.

What follows are molecules tested on HIV-1 (assay: Single-round infectious HIV-1 luciferase reporter virus infection of HeLa CD4 cells). Conditions: Human immunodeficiency virus 1, HeLa, 72 h, read-out: EC50 Group from Table 1.
Format: cell-based
Experimental: • Virus production—Human embryonic Kidney cell line, 293T, was propagated in Dulbecco's Modified Eagle Medium (Invitrogen, Carlsbad, Calif.) containing 10% fetal Bovine serum (FBS, Sigma, St. Louis, Mo.). • Virus infection—Human epithelial cell line, HeLa, expressing the HIV-1 receptor CD4 was propagated in Dulbecco's Modified Eagle Medium (Invitrogen, Carlsbad, Calif.) containing 10% fetal Bovine serum (FBS, Sigma, St. Louis, Mo.) and supplemented with 0.2 mg/mL Geneticin (Invitrogen, Carlsbad, Calif.). Virus—Single-round infectious reporter virus was produced by co-transfecting human embryonic Kidney 293 cells with an HIV-1 envelope DNA expression vector and a proviral cDNA containing an envelope deletion mutation and the luciferase reporter gene inserted in place of HIV-1 nef sequences (Chen et al, Ref 41). Transfections were performed using lipofectAMINE PLUS reagent as described by the manufacturer (Invitrogen, Carlsbad, Calif.). Experiment • 1. HeLa CD4 cells were plated in 96 well plates at a cell density of 1×10^4 cells per well in 100 μl Dulbecco's Modified Eagle Medium containing 10% fetal Bovine serum and incubated overnight. • 2. Compound was added in a 2 μl dimethylsulfoxide solution, so that the final assay concentration would be ≦10 μM. • 3. 100 μl of single-round infectious reporter virus in Dulbecco's Modified Eagle Medium was then added to the plated cells and compound at an approximate multiplicity of infection (MOI) of 0.01, resulting in a final volume of 200 μl per well. • 4. Virally-infected cells were incubated at 37 degrees Celsius, in a CO2 incubator, and harvested 72 h after infection. • 5. Viral infection was monitored by measuring luciferase expression from viral DNA in the infected cells using a luciferase reporter gene assay kit, as described by the manufacturer (Roche Molecular Biochemicals, Indianapolis, Ind.). Infected cell supernatants were removed and 50 μl of lysis buffer was added per well. After 15 minutes, 50 μl of freshly-reconstituted luciferase assay reagent was added per well. Luciferase activity was then quantified by measuring luminescence using a Wallac microbeta scintillation counter. • 6. The percent inhibition for each compound was calculated by quantifying the level of luciferase expression in cells infected in the presence of each compound as a percentage of that observed for cells infected in the absence of compound and subtracting such a determined value from 100. • 7. An EC50 provides a method for comparing the antiviral potency of the compounds of this invention. The effective concentration for fifty percent inhibition (EC50) was calculated with the Microsoft Excel Xlfit curve fitting software. For each compound, curves were generated from percent inhibition calculated at 10 different concentrations by using a four parameter logistic model (model 205). Table 1 is the key for the data in Table 2. Results

How did the pEC50 turn out when `C[C@@H]1CN(C(=O)c2ccccc2)CCN1C(=O)C(=O)c1c[nH]c2c(NC(=O)NCCCCCC(=O)O)cccc12` [P-I-6] was run?
The pEC50 was > 6.00.

`COC(=O)NCCCCNC(=O)Nc1cccc2c(C(=O)C(=O)N3CCN(C(=O)c4ccccc4)C[C@H]3C)cn(C(=O)NCCCCNC(=O)OC)c12` [P-C-115] was tested. Which pEC50 did it give?
The pEC50 was > 6.00.

With `C[C@@H]1CN(C(=O)c2ccccc2)CCN1C(=O)C(=O)c1c[nH]c2c(NC(=O)NCCOCCOCCN)cccc12` [P-C-205] as the molecule, how does the pEC50 read?
The pEC50 was > 6.00.

How did the pEC50 turn out when `C[C@@H]1CN(C(=O)c2ccccc2)CCN1C(=O)C(=O)c1c[nH]c2c(NC(=O)[C@H]3OC(C)(C)O[C@@H]3C(=O)O)cccc12` [P-A-14] was run?
The pEC50 was > 6.00.

How did the pEC50 turn out when `CC(=O)Nc1ccc(F)c2c(C(=O)C(=O)N3CCC(=C(C#N)c4cccnc4)CC3)c[nH]c12` [P-B-5] was run?
Its pEC50 is > 6.00.

`N#CC(=C1CCN(C(=O)C(=O)c2c[nH]c3c(NC(=O)NC(CCC(=O)O)C(=O)O)cccc23)CC1)c1ccccc1` (stereo not drawn) [P-I-8] was tested. Which pEC50 did it give?
Its pEC50 is > 6.00.

`C[C@@H]1CN(C(=O)c2ccccc2)CCN1C(=O)C(=O)c1c[nH]c2c(N3CCN(CCN(C)C)C3=O)cccc12` [P-H-2] was tested. Which pEC50 did it give?
The pEC50 was > 6.00.

How did the pEC50 turn out when `C[C@@H]1CN(C(=O)c2ccccc2)CCN1C(=O)C(=O)c1c[nH]c2c(NC(=O)c3cccc(B(O)O)c3)cccc12` [P-A-22] was run?
The pEC50 was > 6.00.

With `CCOC(=O)c1ccccc1NC(=O)Nc1cccc2c(C(=O)C(=O)N3CCN(C(=O)c4ccccc4)C[C@H]3C)c[nH]c12` [P-C-10] as the molecule, how does the pEC50 read?
The pEC50 was > 6.00.

With `COC(=O)[C@H]1OC(C)(C)O[C@@H]1C(=O)Nc1cccc2c(C(=O)C(=O)N3CCN(C(=O)c4ccccc4)C[C@H]3C)c[nH]c12` [P-A-13] as the molecule, how does the pEC50 read?
The pEC50 was > 6.00.

`N#CC(=C1CCN(C(=O)C(=O)c2c[nH]c3c(NC(=O)NCCCCCC(=O)O)cccc23)CC1)c1ccccc1` [P-I-7] was tested. Which pEC50 did it give?
The pEC50 was > 6.00.

With `CCN(CC)S(=O)(=O)c1ccc(NC(=O)Nc2cccc3c(C(=O)C(=O)N4CCC(=C(C#N)c5ccccc5)CC4)c[nH]c23)cc1` [P-C-21] as the molecule, how does the pEC50 read?
Its pEC50 is > 6.00.

`CC1NC(=O)N(c2cccc3c(C(=O)C(=O)N4CCN(C(=O)c5ccccc5)C[C@H]4C)c[nH]c23)C1=O` (stereo partly drawn) [P-G-2] was tested. Which pEC50 did it give?
The pEC50 was > 6.00.

`CCOC(=O)CC[C@@H]1NC(=O)N(c2cccc3c(C(=O)C(=O)N4CCC(=C(C#N)c5ccccc5)CC4)c[nH]c23)C1=O` [P-G-3] was tested. Which pEC50 did it give?
Its pEC50 is > 6.00.

`C[C@@H]1CN(C(=O)c2ccccc2)CCN1C(=O)C(=O)c1c[nH]c2c(NC(=O)/C=C/C(=O)O)cccc12` [P-A-9] was tested. Which pEC50 did it give?
Its pEC50 is > 6.00.

How did the pEC50 turn out when `C[C@@H]1CN(C(=O)c2ccccc2)CCN1C(=O)C(=O)c1c[nH]c2c(NC(=O)C[N+](C)(C)C)cccc12` [P-A-2] was run?
The pEC50 was > 6.00.

With `C[C@@H]1CN(C(=O)c2ccccc2)CCN1C(=O)C(=O)c1c[nH]c2c(NC(=O)Nc3ccccc3C(=O)O)cccc12` [P-I-9] as the molecule, how does the pEC50 read?
Its pEC50 is > 6.00.

With `CCOC(=O)CCNC(=O)Nc1cccc2c(C(=O)C(=O)N3CCC(=C(C#N)c4ccccc4)CC3)c[nH]c12` [P-C-3] as the molecule, how does the pEC50 read?
Its pEC50 is > 6.00.

`CNCCN1CCN(c2cccc3c(C(=O)C(=O)N4CCN(C(=O)c5ccccc5)C[C@H]4C)c[nH]c23)C1=O` [P-H-1] was tested. Which pEC50 did it give?
The pEC50 was > 6.00.

`C[C@@H]1CN(C(=O)c2ccccc2)CCN1C(=O)C(=O)c1c[nH]c2c(NC(=O)NC3CCN(C(=O)C(F)(F)F)CC3)cccc12` [P-C-24] was tested. Which pEC50 did it give?
The pEC50 was > 6.00.

How did the pEC50 turn out when `CCOC(=O)CCNC(=O)Nc1cccc2c(C(=O)C(=O)N3CCN(C(=O)c4ccccc4)C[C@H]3C)c[nH]c12` [P-C-2] was run?
Its pEC50 is > 6.00.

`COC(=O)[C@@H]1OC(C)(C)O[C@H]1C(=O)Nc1cccc2c(C(=O)C(=O)N3CCN(C(=O)c4ccccc4)C[C@H]3C)c[nH]c12` [P-A-15] was tested. Which pEC50 did it give?
Its pEC50 is > 6.00.

`CC(C)COC(=O)Nc1cccc2c(C(=O)C(=O)N3CCN(C(=O)c4ccccc4)C[C@H]3C)c[nH]c12` [P-D-1] was tested. Which pEC50 did it give?
The pEC50 was > 6.00.

`CCOC(=O)c1ccc(NC(=O)Nc2cccc3c(C(=O)C(=O)N4CCN(C(=O)c5ccccc5)C[C@H]4C)c[nH]c23)cc1` [P-C-14] was tested. Which pEC50 did it give?
The pEC50 was > 6.00.

How did the pEC50 turn out when `COC(=O)CCC(=O)Nc1cccc2c(C(=O)C(=O)N3CCN(C(=O)c4ccccc4)C[C@H]3C)c[nH]c12` [P-A-7] was run?
Its pEC50 is > 6.00.

With `CCOC(=O)CCCNC(=O)Nc1ncc(F)c2c(C(=O)C(=O)N3CCN(C(=O)c4ccccc4)CC3)c[nH]c12` [P-C-26] as the molecule, how does the pEC50 read?
Its pEC50 is > 6.00.

`C[C@@H]1CN(C(=O)c2ccccc2)CCN1C(=O)C(=O)c1c[nH]c2c(NC(=O)NCCCCCCCCNC(=O)Nc3ccc(B(O)O)cc3)cccc12` [P-C-109] was tested. Which pEC50 did it give?
Its pEC50 is > 6.00.

With `CNCCCN(C)CCN1CCN(c2cccc3c(C(=O)C(=O)N4CCN(C(=O)c5ccccc5)C[C@H]4C)c[nH]c23)C1=O` [P-H-3] as the molecule, how does the pEC50 read?
Its pEC50 is > 6.00.

`C[C@@H]1CN(C(=O)c2ccccc2)CCN1C(=O)C(=O)c1c[nH]c2c(NC(=O)NCC(=O)O)cccc12` [P-I-18] was tested. Which pEC50 did it give?
The pEC50 was > 6.00.

How did the pEC50 turn out when `CC(=O)Nc1ccc(F)c2c(C(=O)C(=O)N3CCC(=C(C#N)c4ccccn4)CC3)c[nH]c12` [P-B-1] was run?
Its pEC50 is > 6.00.

With `C[C@@H]1CN(C(=O)c2ccccc2)CCN1C(=O)C(=O)c1c[nH]c2c(NC(=O)CNC(C)(C)C)cccc12` [P-A-1] as the molecule, how does the pEC50 read?
The pEC50 was > 6.00.

With `N#CC(=C1CCN(C(=O)C(=O)c2c[nH]c3c(NC(=O)Nc4ccc(S(=O)(=O)O)cc4)cccc23)CC1)c1ccccc1` [P-C-20] as the molecule, how does the pEC50 read?
Its pEC50 is > 6.00.

How did the pEC50 turn out when `C[C@@H]1CN(C(=O)c2ccccc2)CCN1C(=O)C(=O)c1c[nH]c2c(NC(=O)CN(C)C)cccc12` [P-A-3] was run?
The pEC50 was > 6.00.

With `N#CC(=C1CCN(C(=O)C(=O)c2c[nH]c3c(N4C(=O)N[C@@H](CCC(=O)O)C4=O)cccc23)CC1)c1ccccc1` [P-I-17] as the molecule, how does the pEC50 read?
Its pEC50 is > 6.00.

How did the pEC50 turn out when `C[C@@H]1CN(C(=O)c2ccccc2)CCN1C(=O)C(=O)c1c[nH]c2c(NC(=O)c3ccno3)cccc12` [P-A-21] was run?
Its pEC50 is > 6.00.

`CC(=O)Nc1cccc2c(C(=O)C(=O)N3CCN(C(=O)c4ccccc4)C[C@H]3C)c[nH]c12` [P-A-5] was tested. Which pEC50 did it give?
Its pEC50 is > 6.00.

`C[C@@H]1CN(C(=O)c2ccccc2)CCN1C(=O)C(=O)c1c[nH]c2c(NS(=O)(=O)N(C)C)cccc12` [P-E-5] was tested. Which pEC50 did it give?
The pEC50 was > 6.00.

`C[C@@H]1CN(C(=O)c2ccccc2)CCN1C(=O)C(=O)c1c[nH]c2c(NC(=O)NCCCC(=O)O)cccc12` [P-I-4] was tested. Which pEC50 did it give?
Its pEC50 is > 6.00.

With `CC(C)/N=C(/Nc1cccc2c(C(=O)C(=O)N3CCN(C(=O)c4ccccc4)C[C@H]3C)c[nH]c12)NC(C)C` [P-F-1] as the molecule, how does the pEC50 read?
Its pEC50 is > 6.00.

With `C[C@@H]1CN(C(=O)c2ccccc2)CCN1C(=O)C(=O)c1c[nH]c2c(NC(=O)Nc3cccc(C(=O)O)c3)cccc12` [P-I-11] as the molecule, how does the pEC50 read?
The pEC50 was > 6.00.

With `CC(=O)Nc1ccc(F)c2c(C(=O)C(=O)N3CC/C(=C(\C#N)c4cccnc4)CC3C)c[nH]c12` (stereo not drawn) [P-B-7] as the molecule, how does the pEC50 read?
The pEC50 was > 6.00.

How did the pEC50 turn out when `Cc1ccc(S(=O)(=O)Nc2cccc3c(C(=O)C(=O)N4CCN(C(=O)c5ccccc5)C[C@H]4C)cn(S(=O)(=O)c4ccc(C)cc4)c23)cc1` [P-E-4] was run?
The pEC50 was > 6.00.

How did the pEC50 turn out when `N#CC(=C1CCN(C(=O)C(=O)c2c[nH]c3c(NC(=O)Nc4cccc(C(=O)O)c4)cccc23)CC1)c1ccccc1` [P-I-12] was run?
Its pEC50 is > 6.00.

`C[C@@H]1CN(C(=O)c2ccccc2)CCN1C(=O)C(=O)c1c[nH]c2c(NC(=O)[C@@H]3OC(C)(C)O[C@H]3C(=O)O)cccc12` [P-A-16] was tested. Which pEC50 did it give?
The pEC50 was > 6.00.

`C[C@@H]1CN(C(=O)c2ccccc2)CCN1C(=O)C(=O)c1c[nH]c2c(NC(=O)Nc3ccc(B(O)O)cc3)cccc12` [P-C-204] was tested. Which pEC50 did it give?
The pEC50 was > 6.00.

With `CC(=O)OCC(=O)Nc1cccc2c(C(=O)C(=O)N3CCN(C(=O)c4ccccc4)C[C@H]3C)c[nH]c12` [P-A-4] as the molecule, how does the pEC50 read?
The pEC50 was > 6.00.

`C[C@@H]1CN(C(=O)c2ccccc2)CCN1C(=O)C(=O)c1c[nH]c2c(NC(=O)C3OC3C(=O)O)cccc12` (stereo partly drawn) [P-A-10] was tested. Which pEC50 did it give?
Its pEC50 is > 6.00.

With `N#CC(=C1CCN(C(=O)C(=O)c2c[nH]c3c(NC(=O)Nc4ccc(C#N)cc4)cccc23)CC1)c1ccccc1` [P-C-23] as the molecule, how does the pEC50 read?
The pEC50 was > 6.00.
